From patent US10517889B2, “Modulators of SMAD7 expression” (Ionis Pharmaceuticals, Inc., priority 2017, dated 2019)

Legend:
[1] = Plasma chemistry markers after subcutaneous administration in CD-1 mice (Example 6); assay type: in vivo; conditions: CD-1 mice plasma at day 46; 50 mg/kg subcutaneously twice a week for 7 weeks
[2] = Organ weights after subcutaneous administration in CD-1 mice (Example 6); assay type: in vivo; conditions: end of study, 50 mg/kg subcutaneously twice a week for 7 weeks
Method in brief: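 Male CD-1 mice aged 8-9 weeks, 4 per group, were dosed subcutaneously twice weekly for 7 weeks with 50 mg/kg oligonucleotide (100 mg/kg/week), with PBS controls. Organ weights were assessed, and plasma was collected on day 28.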

[3] = Hematology assays after subcutaneous administration in CD-1 mice (Example 6); assay type: in vivo; design: RBC / Eosinophils / Monocytes: unit not given here; conditions: 50 mg/kg subcutaneous twice weekly for 7 weeks
Method in brief: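 Male CD-1 mice, 8-9 weeks old, 4 per group, given oligonucleotides 50 mg/kg s.c. twice weekly (100 mg/kg/week) for 7 weeks; PBS group as control. Blood analysed on an automated hematology analyzer for blood cell counts and other markers; plasma collected day 28.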

[4] = Blood chemistry markers after oral gavage in CD-1 mice (Example 7); assay type: in vivo; conditions: 500 mg/kg oral gavage once daily for 4 weeks, day 30
Method in brief: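 Male CD-1 mice, 7-8 weeks old, 8 per group, dosed by oral gavage once daily for 4 weeks with 500 mg/kg human SMAD7 antisense oligonucleotide; saline-gavaged group as control. Plasma transaminases, albumin and BUN measured on a clinical chemistry analyzer.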

[5] = Body and organ weights after oral gavage in CD-1 mice (Example 7); assay type: in vivo; conditions: 500 mg/kg oral gavage once daily for 4 weeks, end of study
Method in brief: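 Male CD-1 mice, 7-8 weeks old (8 per group), received SMAD7 antisense oligonucleotides at 500 mg/kg by oral gavage once daily for 4 weeks, with a saline-gavage control group. Final body weights and organ weights were recorded at study end.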

[6] = Oligonucleotide concentrations in tissues by LC-MS/MS after oral gavage in CD-1 mice (Example 7); assay type: in vivo; conditions: 500 mg/kg oral gavage once daily for 4 weeks, 48 hours after last dose
Description: Groups of 7-8 week old male CD-1 mice were given an oral gavage dose once daily for 4 weeks of 500 mg/kg of Ionis SMAD7 oligonucleotides. Each group contained 8 mice. One group of male CD-1 mice was administered saline by oral gavage daily.
Oligonucleotide concentrations were detected in various tissues by LC-MS/MS analysis. The greatest concentration was found in the kidney, followed by the colon.

[7] = test system: dog SMAD7 mRNA; test: Pharmacology: dog SMAD7 mRNA expression in liver, kidney, duodenum, ileum and colon after subcutaneous administration in beagle dogs (Example 8); assay type: in vivo; conditions: 30 mg/kg subcutaneous, necropsy, normalized to HPRT1
Method in brief: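 Beagle dogs, 4 per group, dosed subcutaneously with human ASOs complementary to dog SMAD7; liver, kidney, duodenum, ileum and colon collected at necropsy. SMAD7 mRNA quantified with primer-probe set RTS34649, normalized to HPRT1; one-way ANOVA with Dunnett's test.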

[8] = Plasma chemistry markers after subcutaneous administration in beagle dogs (Example 8); conditions: 30 mg/kg subcutaneous days 1, 3, 5, 8, 15, 22, 29, plasma at day 31
Description: Groups of 24-25 week old male beagle dogs were injected subcutaneously with 30 mg/kg ION Ionis oligonucleotide. There were 4 animals per group. Dogs were injected every two days for the first week (day 1, 3, and 5) and once weekly thereafter (days 8, 15, 22, and 29). A control group of dogs received subcutaneous injections of PBS. Dogs were sacrificed on day 31 approximately 48 hours after the final dose and organs and plasma were harvested for further analysis.
To evaluate the effect of Ionis SMAD7 oligonucleotides on liver and kidney function, plasma levels of transaminases, albumin, creatine and BUN were measured using an automated clinical chemistry analyzer (Toshiba 200FR Neo chemistry analyzer, Toshiba Co., Japan).

[9] = test system: human peripheral blood mononuclear cells (PBMCs); test: Human PBMC activation assay, cytokine levels (IL-10, IL-6, MCP-1, TNF-α) in supernatant after 24 hours (Example 9); conditions: human PBMC supernatant after 24 hours
Description: Ionis SMAD7 oligonucleotides were tested in an in vitro assay for potential immunostimulatory properties in an in vitro human peripheral blood mononuclear cell (PBMC) activation assay.
Blood samples were collected from healthy human volunteers in heparinized vials and mixed well. Human PBMCs were isolated by gradient centrifugation using Ficoll-Histopaque. The cells were washed, counted and resuspended in medium. The PBMCs were plated in a 24-well culture plate and various concentrations of oligonucleotides were added to the media. An oligonucleotide historically known to promote an inflammatory response was used as a positive control, whereas an oligonucleotide known not to be pro-inflammatory was used as a negative control. […] The supernatants were collected after 24 hours and analyzed for cytokine levels using MSD platform.

For “829994 (GGAGGCAGGGCCGCGA; 3-10-3 cEt gapmer, further chemistry not given here) [compound 829994]”, the ALT [1] was 65 IU/L, the AST [1] was 90 IU/L and the Albumin [1] was 2.9 g/dL. For the same substance, the BUN [1] was 25 mg/dL, the “Organ weights, Kidneys” value [2] was 0.7 g and the “Organ weights, Liver” value [2] was 2.6 g. For the same substance, the “Organ weights, Spleen” value [2] was 0.3 g, the Eosinophils [3] was 1.3 and the Hematocrit [3] was 36.6%. For the same substance, the Hemoglobin [3] was 12.0 g/dL, the Lymphocytes [3] was 79.4% and the MCH [3] was 15.5 pg. It also gave an MCHC [3] of 32.7 g/dL, an MCV [3] of 47.3 fL and a Monocytes [3] of 3.0. It also gave a Neutrophils [3] of 16.4%, an RBC [3] of 7.7 and a Reticulocytes [3] of 3.7%. For the same substance, the WBC [3] was 5.0 10^3/μL, the platelets [3] was 841.3 10^3/μL and the ALT [4] was 38 IU/L. For the same substance, the AST [4] was 71 IU/L, the Albumin [4] was 3.2 g/dL and the BUN [4] was 25 mg/dL. For the same substance, the Bilirubin [4] was 0.3 mg/dL, the Body weight [5] was 35 g and the Heart weight [5] was 0.18 g. The Kidneys weight [5] was 0.62 g, the “Liver with gallbladder weight” value [5] was 2.02 g and the Spleen weight [5] was 0.11 g. The “Oligonucleotide concentration, Colon” value ([6]; colon) was 5.7 µg/g, the “Oligonucleotide concentration, Duodenum” value ([6]; duodenum) was 0.8 µg/g and the “Oligonucleotide concentration, Ileum” value ([6]; ileum) was 4.0 µg/g. For the same substance, the “Oligonucleotide concentration, Kidney” value ([6]; kidney) was 9.8 µg/g, the “Oligonucleotide concentration, Liver” value ([6]; liver) was 1.3 µg/g and the “% inhibition of SMAD7 mRNA expression (compared to control), Distal colon” value ([7]; distal colon) was 29%. The “% inhibition of SMAD7 mRNA expression (compared to control), Duodenum” value ([7]; duodenum) was 2%, the “% inhibition of SMAD7 mRNA expression (compared to control), Ileum” value ([7]; ileum) was 32% and the “% inhibition of Smad7 mRNA expression (compared to control), Kidney” value ([7]; kidney) was 0%. For the same substance, the “% inhibition of Smad7 mRNA expression (compared to control), Liver” value ([7]; liver) was 0%, the “% inhibition of SMAD7 mRNA expression (compared to control), Proximal colon” value ([7]; proximal colon) was 34% and the ALT [8] was 62 IU/L. The AST [8] was 52 IU/L, the Albumin [8] was 3.1 g/dL and the BUN [8] was 15.4 mg/dL. The Bilirubin [8] was 0.1 mg/dL, the Creatine [8] was 0.7 mg/dL and the “Levels of IL-6” value ([9]; 0.0128 μM oligonucleotide) was 4.1 pg/mL. For the same substance, the “Levels of IL-10” value ([9]; 0.0128 μM oligonucleotide) was 2.0 pg/mL, the “Levels of MCP-1” value ([9]; 0.0128 μM oligonucleotide) was 299.8 pg/mL and the “Levels of TNF-α” value ([9]; 0.0128 μM oligonucleotide) was 2.5 pg/mL. For the same substance, the “Levels of IL-6” value ([9]; 0.064 μM oligonucleotide) was 3.8 pg/mL, the “Levels of IL-10” value ([9]; 0.064 μM oligonucleotide) was 1.8 pg/mL and the “Levels of MCP-1” value ([9]; 0.064 μM oligonucleotide) was 379.8 pg/mL. The “Levels of TNF-α” value ([9]; 0.064 μM oligonucleotide) was 2.9 pg/mL, the “Levels of IL-6” value ([9]; 0.32 μM oligonucleotide) was 4.5 pg/mL and the “Levels of IL-10” value ([9]; 0.32 μM oligonucleotide) was 1.8 pg/mL. The “Levels of MCP-1” value ([9]; 0.32 μM oligonucleotide) was 489.7 pg/mL, the “Levels of TNF-α” value ([9]; 0.32 μM oligonucleotide) was 3.0 pg/mL and the “Levels of IL-6” value ([9]; 1.6 μM oligonucleotide) was 15.9 pg/mL. For the same substance, the “Levels of IL-10” value ([9]; 1.6 μM oligonucleotide) was 5.2 pg/mL, the “Levels of MCP-1” value ([9]; 1.6 μM oligonucleotide) was 1300.0 pg/mL and the “Levels of TNF-α” value ([9]; 1.6 μM oligonucleotide) was 8.0 pg/mL. The “Levels of IL-6” value ([9]; 8 μM oligonucleotide) was 202.5 pg/mL, the “Levels of IL-10” value ([9]; 8 μM oligonucleotide) was 8.0 pg/mL and the “Levels of MCP-1” value ([9]; 8 μM oligonucleotide) was 3370.0 pg/mL. For the same substance, the “Levels of TNF-α” value ([9]; 8 μM oligonucleotide) was 63.2 pg/mL, the “Levels of IL-6” value ([9]; 40 μM oligonucleotide) was 66.1 pg/mL and the “Levels of IL-10” value ([9]; 40 μM oligonucleotide) was 4.3 pg/mL. The “Levels of MCP-1” value ([9]; 40 μM oligonucleotide) was 1998.4 pg/mL, the “Levels of TNF-α” value ([9]; 40 μM oligonucleotide) was 32.3 pg/mL and the “Levels of IL-6” value ([9]; 200 μM oligonucleotide) was 97.1 pg/mL. The “Levels of IL-10” value ([9]; 200 μM oligonucleotide) was 3.8 pg/mL, the “Levels of MCP-1” value ([9]; 200 μM oligonucleotide) was 391.7 pg/mL and the “Levels of TNF-α” value ([9]; 200 μM oligonucleotide) was 28.6 pg/mL.
